Laboratory results as given in US12398154B2, “Azaquinazoline pan-KRas inhibitors” (Mirati Therapeutics, Inc., priority 2020, dated 2025).

Experiments:
pERK in PSN1 cells = experiment: Inhibition of KRas phosphorylation of ERK (Cisbio HTRF pERK assay); conditions: Homo sapiens, PSN1, 3 h, read-out: Inhibition (HTRF IC50) of KRas-mediated Phosphorylation of ERK, PSN1
KRas G12V = KRas G12V (Homo sapiens, UniProt P01116, G12V); experiment: biochemical;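 note: KRas binding measured by TR-FRET displacement at room temperature, IC50 fitted from percent of control values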
Experimental: (§1) The ability of a compound to bind to KRas was measured using a TR-FRET displacement assay. […] After a 60-minute incubation at room temperature, the reaction was measured using a BMG LABTECH CLARIO star Plus via TR-FRET. […] The POC values were fit to a 4-parameter IC50 equation and the IC50 value reported.

KRas WT = KRas WT (Homo sapiens, UniProt P01116); experiment: biochemical;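 note: binding to KRas read as TR-FRET displacement after a one-hour room-temperature incubation, IC50 derived from percent-of-control values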
Experimental: as §1

KRas G12R = KRas G12R (Homo sapiens, UniProt P01116, G12R); experiment: biochemical;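 note: TR-FRET displacement assay of compound binding to KRas, read after one hour at room temperature, potency from a four-parameter fit of percent-of-control values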
Experimental: as §1

KRas G12C = KRas G12C (Homo sapiens, UniProt P01116, G12C); experiment: biochemical;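 note: binding to KRas assessed by TR-FRET displacement after one hour incubation at room temperature, potency fitted from percent-of-control values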
Experimental: as §1

KRas G12D = KRas G12D (Homo sapiens, UniProt P01116, G12D); experiment: biochemical;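 note: TR-FRET displacement binding assay on KRas, read after a one-hour incubation at room temperature, IC50 fitted from percent-of-control values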
KRas G12D, sequence (P01116 1-169 isoform P01116-2 G12D): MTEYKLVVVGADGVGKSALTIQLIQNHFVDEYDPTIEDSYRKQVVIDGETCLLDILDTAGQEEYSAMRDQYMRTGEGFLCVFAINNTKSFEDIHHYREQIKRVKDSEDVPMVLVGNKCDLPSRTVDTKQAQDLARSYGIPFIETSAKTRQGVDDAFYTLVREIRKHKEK
Experimental: as §1

KRas WT, sequence (P01116 1-169 isoform P01116-2): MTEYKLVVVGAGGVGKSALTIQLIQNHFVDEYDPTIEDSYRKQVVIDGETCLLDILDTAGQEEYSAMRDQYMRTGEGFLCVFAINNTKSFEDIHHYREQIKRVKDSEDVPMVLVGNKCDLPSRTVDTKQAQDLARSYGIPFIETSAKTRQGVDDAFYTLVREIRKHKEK
KRas G12C, sequence (P01116 1-169 isoform P01116-2 G12C): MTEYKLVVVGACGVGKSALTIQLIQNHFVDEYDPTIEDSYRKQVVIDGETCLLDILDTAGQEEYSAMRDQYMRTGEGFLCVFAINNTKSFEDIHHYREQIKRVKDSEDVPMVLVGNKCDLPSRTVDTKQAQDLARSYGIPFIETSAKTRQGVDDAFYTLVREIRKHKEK
KRas G12V, sequence (P01116 1-169 isoform P01116-2 G12V): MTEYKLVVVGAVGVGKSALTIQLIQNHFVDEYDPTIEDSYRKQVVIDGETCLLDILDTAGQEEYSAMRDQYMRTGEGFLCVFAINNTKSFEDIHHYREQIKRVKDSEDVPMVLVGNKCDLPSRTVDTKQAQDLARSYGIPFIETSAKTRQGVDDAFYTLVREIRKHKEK
KRas G12R, sequence (P01116 1-169 isoform P01116-2 G12R): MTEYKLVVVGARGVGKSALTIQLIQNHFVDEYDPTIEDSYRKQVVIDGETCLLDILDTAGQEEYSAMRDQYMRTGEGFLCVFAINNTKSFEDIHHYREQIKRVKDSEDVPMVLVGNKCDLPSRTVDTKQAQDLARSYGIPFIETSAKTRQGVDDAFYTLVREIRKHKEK

IC50 (KRas G12V)	IC50 (KRas WT)	IC50 (KRas G12R)	IC50 (KRas G12C)	IC50 (KRas G12D)	SMILES	IC50 (pERK in PSN1 cells)
					CCc1c(F)ccc2cc(O)cc(-c3ncc4c(N5CCC[C@](C)(O)C5)nc(OC[C@@]56CCCN5C[C@H](F)C6)nc4c3F)c12 [Example 4]	≥ 10 µM
2.1 µM	4.19 µM	7.59 µM	2.83 µM	2.63 µM	NC(=O)C1COCCN(c2nc(OCC34CCCN3CCC4)nc3c(F)c(-c4cccc5cccc(F)c45)ncc23)C1 (centres unmarked) [Example 270, 4-(8-fluoro-7-(8-fluoronaphthalen-1-yl)-2-((hexahydro-1H-pyrrolizin-7a-yl)methoxy)pyrido[4,3-d]pyrimidin-4-yl)-1,4-oxazepane-6-carboxamide]	
2.44 µM	3 µM	7.69 µM		2.43 µM	CS(=O)(=O)C1COCCN(c2nc(OCC34CCCN3CCC4)nc3c(F)c(-c4cccc5cccc(F)c45)ncc23)C1 (centres unmarked) [Example 271, 4-(8-fluoro-7-(8-fluoronaphthalen-1-yl)-2-((hexahydro-1H-pyrrolizin-7a-yl)methoxy)pyrido[4,3-d]pyrimidin-4-yl)-6-(methylsulfonyl)-1,4-oxazepane]	
2.31 µM	3.07 µM	5.2 µM		5.15 µM	NC(=O)[C@H]1CCCN(c2nc(OCC34CCCN3CCC4)nc3c(F)c(-c4cccc5cccc(F)c45)ncc23)C1 [Example 273, (S)-1-(8-fluoro-7-(8-fluoronaphthalen-1-yl)-2-((hexahydro-1H-pyrrolizin-7a-yl)methoxy)pyrido[4,3-d]pyrimidin-4-yl)piperidine-3-carboxamide]	
3.12 µM	36.8 µM	2.12 µM	4.72 µM	85.3 µM	CC(Nc1nc(OCC23CCCN2CCC3)nc2c(F)c(-c3cccc4cccc(F)c34)ncc12)c1c[nH]c2ncccc12 (centres unmarked) [Example 229, N-(1-(1H-pyrrolo[2,3-b]pyridin-3-yl)ethyl)-8-fluoro-7-(8-fluoronaphthalen-1-yl)-2-((tetrahydro-1H-pyrrolizin-7a(5H)-yl)methoxy)pyrido[4,3-d]pyrimidin-4-amine]	
1.8 µM	5.29 µM	4.91 µM		0.765 µM	O=C(c1cc2n(n1)CCCN(c1nc(OCC34CCCN3CCC4)nc3c(F)c(-c4cccc5cccc(F)c45)ncc13)C2)N1CCC1 [Example 277, azetidin-1-yl(5-(8-fluoro-7-(8-fluoronaphthalen-1-yl)-2-((hexahydro-1H-pyrrolizin-7a-yl)methoxy)pyrido[4,3-d]pyrimidin-4-yl)-5,6,7,8-tetrahydro-4H-pyrazolo[1,5-a][1,4]diazepin-2-yl)methanone]	
2.43 µM	3.39 µM	3.06 µM	2.72 µM	1.24 µM	O=C1NC2(CCCN(c3nc(OCC45CCCN4CCC5)nc4c(F)c(-c5cccc6cccc(F)c56)ncc34)C2)CO1 (centres unmarked) [Example 227, 7-(8-fluoro-7-(8-fluoronaphthalen-1-yl)-2-((hexahydro-1H-pyrrolizin-7a-yl)methoxy)pyrido[4,3-d]pyrimidin-4-yl)-3-oxa-1,7-diazaspiro[4.5]decan-2-one]	
1.79 µM	1.53 µM	1.66 µM		0.96 µM	Fc1c(-c2cccc3cccc(F)c23)ncc2c(N3CCCC4(CSC4)C3)nc(OCC34CCCN3CCC4)nc12 [Example 262, 6-(8-fluoro-7-(8-fluoronaphthalen-1-yl)-2-((hexahydro-1H-pyrrolizin-7a-yl)methoxy)pyrido[4,3-d]pyrimidin-4-yl)-2-thia-6-azaspiro[3.5]nonane]	
